Reference: publication PMC9401617 (Science Advances, 2022)
Changes are numbered by the printed parent chain. Like-named read-outs stand apart in the source and are kept apart here. Values belong to the molecule of their own block, whether it stands above or below them.

Legend:
hUHRF1 [1] = molecular target: T1, hUHRF1 (Homo sapiens, UniProt Q96T88); experiment: MST with labeled recombinant protein; format: binding
T1 sequence (Q96T88 1-793): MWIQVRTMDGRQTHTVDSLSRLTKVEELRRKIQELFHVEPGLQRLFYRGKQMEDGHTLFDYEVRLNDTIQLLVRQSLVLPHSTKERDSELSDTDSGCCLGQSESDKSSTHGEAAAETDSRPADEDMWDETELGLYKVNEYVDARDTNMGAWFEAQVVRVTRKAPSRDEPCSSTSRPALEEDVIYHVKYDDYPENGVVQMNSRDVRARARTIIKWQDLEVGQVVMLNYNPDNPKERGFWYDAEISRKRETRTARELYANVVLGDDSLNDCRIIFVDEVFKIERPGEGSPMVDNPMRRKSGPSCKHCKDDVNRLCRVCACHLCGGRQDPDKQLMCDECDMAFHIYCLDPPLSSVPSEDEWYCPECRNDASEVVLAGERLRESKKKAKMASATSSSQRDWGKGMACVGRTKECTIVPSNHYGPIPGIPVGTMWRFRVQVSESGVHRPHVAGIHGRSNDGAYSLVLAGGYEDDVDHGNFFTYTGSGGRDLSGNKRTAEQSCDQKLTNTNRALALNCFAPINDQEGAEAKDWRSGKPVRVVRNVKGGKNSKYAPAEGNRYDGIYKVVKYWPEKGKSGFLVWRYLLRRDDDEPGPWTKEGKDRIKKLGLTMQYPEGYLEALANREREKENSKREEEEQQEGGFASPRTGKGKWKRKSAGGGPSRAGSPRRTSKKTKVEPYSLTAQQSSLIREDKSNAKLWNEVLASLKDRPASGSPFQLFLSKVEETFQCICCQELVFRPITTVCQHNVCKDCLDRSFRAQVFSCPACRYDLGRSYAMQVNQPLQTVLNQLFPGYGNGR

hUHRF1 [2] = molecular target: T2, hUHRF1 (Homo sapiens, UniProt Q96T88, D142A); experiment: MST with labeled recombinant mutant protein; format: binding
T2 sequence (Q96T88 1-793 D142A): T1 sequence (Q96T88 1-793) with D142A

hUHRF1 (Homo sapiens) = experiment: EMSA
hUHRF1 [3] = molecular target: T1, hUHRF1; experiment: MST with labeled recombinant protein; format: binding; remark: listed apart in the source
hUHRF1 [4] = molecular target: T3, hUHRF1 (Homo sapiens, UniProt Q96T88, R649A); experiment: MST with labeled recombinant mutant protein; format: binding
T3 sequence (Q96T88 1-793 R649A): T1 sequence (Q96T88 1-793) with R649A

Molecule: CCCCCCCCCCCCCCCC(=O)OC[C@H](COP(=O)(O)O[C@@H]1[C@H](O)[C@H](OP(=O)(O)O)[C@@H](O)[C@H](O)[C@H]1O)OC(=O)CCCCCCCCCCCCCCC [PI3P, di-C 16:0 PI3P]
- Kd (hUHRF1 [1]): 5.5 µM

Molecule: CCCCCCCCCCCCCCCC(=O)OC[C@H](COP(=O)(O)O[C@H]1[C@H](O)[C@@H](OP(=O)(O)O)[C@H](O)[C@@H](O)[C@H]1O)OC(=O)CCCCCCCCCCCCCCC [D142*, di-C 16:0 PI5P]
- Kd (hUHRF1 [2]): 60 µM

Molecule: H3unmodified mononucleosome, 147 bp Widom 601
- Kd (hUHRF1 (Homo sapiens)): 1.1 µM

More lines, now with the values ahead:

- Kd (hUHRF1 [3]): 4.7 µM
Molecule: CCCCCCCCCCCCCCCC(=O)OC[C@H](COP(=O)(O)O[C@H]1[C@H](O)[C@@H](OP(=O)(O)O)[C@H](O)[C@@H](O)[C@H]1O)OC(=O)CCCCCCCCCCCCCCC [PI5P, di-C 16:0 PI5P]

- Kd (hUHRF1 [4]): 3 µM
Molecule: CCCCCCCCCCCCCCCC(=O)OC[C@H](COP(=O)(O)O[C@H]1[C@H](O)[C@@H](OP(=O)(O)O)[C@H](O)[C@@H](O)[C@H]1O)OC(=O)CCCCCCCCCCCCCCC [R649*, di-C 16:0 PI5P]
